Experimental data from article PMC3626541, “A first in human, safety, pharmacokinetics, and clinical activity phase I study of once weekly administration of the Hsp90 inhibitor ganetespib (STA-9090) in patients with solid malignancies” (BMC Cancer, 2013).

Tested on: patients with advanced solid tumors
Assay: Safety: adverse events (NCI CTCAE v3.0), ECG
Type: in vivo, human
Experimental: Patients’ demographics and medical history were recorded at baseline. Physical examination and PS were assessed at baseline and on Day 1 of each cycle. Adverse events (AEs), vital signs, hematology and chemistry values, and creatinine clearance were assessed at baseline and weekly during treatment. Toxicity was graded using National Cancer Institute Common Terminology Criteria for Adverse Events (NCI CTCAE), version 3.0. An electrocardiogram (ECG) was performed at baseline, before and after treatment on Days 1 and 15 of Cycles 1 and 2, and on Day 15 of even-numbered cycles thereafter. CT scans were done at baseline and every 8 weeks thereafter. Tumor response was assessed using Response Evaluation Criteria in Solid Tumors (RECIST, v1.0), with confirmation of responses performed at least 4 weeks later.

## CC(C)c1cc(-c2n[nH]c(=O)n2-c2ccc3c(ccn3C)c2)c(O)cc1O [Ganetespib, 5-[2,4-dihydroxy-5-(1 methyl-ethyl)phenyl]-2,4 dihydro-4-(1-methyl-1H indol-5 yl)-3H-1,2,4 triazole-3-one]
7-114 mg/m^2, n = 25
  Any event, AE of any grade, Number (%) of patients: 25 (100) n (%)
  Any event, CTCAE Grade 3 and 4 AE, Number (%) of patients: 17 (68) n (%)
  Any event, serious adverse events, Number (%) of patients: 6 (24) n (%)
  Arthralgia, CTCAE Grade 3 and 4 AE, Number (%) of patients: 1 (4) n (%)
  Asthenia, AE of any grade, Number (%) of patients: 2 (8) n (%)
  Asthenia, CTCAE Grade 3 and 4 AE, Number (%) of patients: 1 (4) n (%)
  Asthenia, serious adverse events, Number (%) of patients: 0 n (%)
  Back pain, AE of any grade, Number (%) of patients: 4 (16) n (%)
  Constipation, AE of any grade, Number (%) of patients: 5 (20) n (%)
  Decreased appetite, AE of any grade, Number (%) of patients: 2 (8) n (%)
  Dehydration, AE of any grade, Number (%) of patients: 1 (4) n (%)
  Dehydration, CTCAE Grade 3 and 4 AE, Number (%) of patients: 1 (4) n (%)
  Dehydration, serious adverse events, Number (%) of patients: 0 n (%)
  Diarrhea, CTCAE Grade 3 and 4 AE, Number (%) of patients: 1 (4) n (%)
  Dizziness, AE of any grade, Number (%) of patients: 1 (4) n (%)
  Dry mouth, AE of any grade, Number (%) of patients: 2 (8) n (%)
  Dyspnea, AE of any grade, Number (%) of patients: 4 (16) n (%)
  Extremity pain, AE of any grade, Number (%) of patients: 4 (16) n (%)
  Fatigue, AE of any grade, Number (%) of patients: 12 (48) n (%)
  Fatigue, CTCAE Grade 3 and 4 AE, Number (%) of patients: 1 (4) n (%)
  Headache, AE of any grade, Number (%) of patients: 2 (8) n (%)
  Hyperbilirubinemia, CTCAE Grade 3 and 4 AE, Number (%) of patients: 1 (4) n (%)
  Hypokalemia, AE of any grade, Number (%) of patients: 2 (8) n (%)
  Hypokalemia, CTCAE Grade 3 and 4 AE, Number (%) of patients: 0 n (%)
  Hyponatremia, CTCAE Grade 3 and 4 AE, Number (%) of patients: 3 (12) n (%)
  Hypophosphatemia, AE of any grade, Number (%) of patients: 5 (20) n (%)
  Hypophosphatemia, CTCAE Grade 3 and 4 AE, Number (%) of patients: 2 (8) n (%)
  Insomnia, AE of any grade, Number (%) of patients: 2 (8) n (%)
  Musculoskeletal chest pain, AE of any grade, Number (%) of patients: 2 (8) n (%)
  Nausea, AE of any grade, Number (%) of patients: 7 (28) n (%)
  Peripheral edema, AE of any grade, Number (%) of patients: 3 (12) n (%)
  Pneumonia, serious adverse events, Number (%) of patients: 0 n (%)
  Rash, AE of any grade, Number (%) of patients: 4 (16) n (%)
  Serum amylase elevated, CTCAE Grade 3 and 4 AE, Number (%) of patients: 1 (4) n (%)
  Spinal cord compression, CTCAE Grade 3 and 4 AE, Number (%) of patients: 2 (8) n (%)
  Urinary tract infection, AE of any grade, Number (%) of patients: 2 (8) n (%)
  Vomiting, AE of any grade, Number (%) of patients: 4 (16) n (%)
  Weight decreased, AE of any grade, Number (%) of patients: 1 (4) n (%)
7-114 mg/m^2, n = 25, first of two ALT elevated lines
  ALT elevated, AE of any grade, Number (%) of patients: 5 (20) n (%)
7-114 mg/m^2, n = 25, second of two ALT elevated lines
  ALT elevated, AE of any grade, Number (%) of patients: 3 (12) n (%)
7–114 mg/m^2 dose levels
  Incidence of diarrhea: 80%
  Incidence of fatigue: 48%
150-216 mg/m^2, n = 22
  ALT elevation, CTCAE Grade 3 and 4 AE, Number (%) of patients: 1 (4.5) n (%)
  AST elevated, AE of any grade, Number (%) of patients: 4 (18.2) n (%)
  Abdominal distension, AE of any grade, Number (%) of patients: 3 (13.6) n (%)
  Abdominal pain, AE of any grade, Number (%) of patients: 10 (45.5) n (%)
  Abdominal pain, serious adverse events, Number (%) of patients: 1 (4.5) n (%)
  Anemia, AE of any grade, Number (%) of patients: 5 (22.7) n (%)
  Any event, AE of any grade, Number (%) of patients: 22 (100) n (%)
  Any event, CTCAE Grade 3 and 4 AE, Number (%) of patients: 14 (63.6) n (%)
  Any event, serious adverse events, Number (%) of patients: 6 (27.3) n (%)
  Arthralgia, CTCAE Grade 3 and 4 AE, Number (%) of patients: 0 n (%)
  Asthenia, AE of any grade, Number (%) of patients: 4 (18.2) n (%)
  Asthenia, CTCAE Grade 3 and 4 AE, Number (%) of patients: 1 (4.5) n (%)
  Asthenia, serious adverse events, Number (%) of patients: 1 (4.5) n (%)
  Back pain, AE of any grade, Number (%) of patients: 2 (9.1) n (%)
